Experimental data as given in PubChem BioAssay (NCI).
Several values for one entry are separate records, joined by “and”; a condition that tells them apart may be missing. Equal entries are not always repeated.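 The compound was tested at five concentrations on cells cultured in 96-well plates, with a 48-hour exposure period. GI50 marks 50% less growth. TGI denotes the concentration required for complete inhibition of growth.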

Columns and labels:
Experiment in all cases: NCI-60 cell line screen, 48 h
HS 578T breast = test system: HS 578T breast
BT-549 breast = test system: BT-549 breast
LXFL 529 NSCLC = test system: LXFL 529 NSCLC
KM20L2 colon = test system: KM20L2 colon
DMS 114 small cell lung = test system: DMS 114 small cell lung
DLD-1 colon = test system: DLD-1 colon
HOP-18 NSCLC = test system: HOP-18 NSCLC
MDA-N = test system: MDA-N

Compound	GI50 (HS 578T breast)	TGI (HS 578T breast)	GI50 (BT-549 breast)	TGI (BT-549 breast)	other results
COC(=O)/C(=C\c1c(C)[nH]c2ccccc12)S(=O)(=O)c1ccccc1	2.85 µM	13.6 µM	5.4 µM	25.5 µM	–
Cc1ccc2c(=O)c3cccc(CC(=O)O)c3oc2c1C	> 100 µM	> 100 µM	> 100 µM	> 100 µM	–
CCOC(=O)c1ccc(N2C(=O)/C(=C\OC)c3ccccc3C2=O)cc1	–	–	–	–	TGI (LXFL 529 NSCLC): 89.1 µM; TGI (KM20L2 colon): > 100 µM; TGI (DMS 114 small cell lung): > 100 µM
CC(=O)/C=C/c1ccc(C2CC(C)=Nc3c(ccc4c3C(=O)c3ccccc3C4=O)N2)cc1 (stereo not given)	–	–	–	–	TGI (DLD-1 colon): > 100 µM; TGI (KM20L2 colon): > 100 µM; TGI (DMS 114 small cell lung): > 100 µM; TGI (HOP-18 NSCLC): > 100 µM
C[C@]12CC[C@@H]3c4ccc(O)cc4CC[C@H]3[C@@H]1CC[C@@H]2NS(=O)(=O)Cc1ccc(Cl)cc1	2.4 µM	7.46 µM	2.35 µM	5.74 µM	–
CS(=O)c1ccc(COP(N)(=O)N(CCCl)CCCl)cc1 (stereo not given)	–	–	–	–	TGI (LXFL 529 NSCLC): > 100 µM; TGI (DLD-1 colon): > 100 µM; TGI (KM20L2 colon): > 100 µM; TGI (DMS 114 small cell lung): > 100 µM
CCSc1nc(N=Cc2cccs2)c2cn[nH]c2n1	16.2 µM	> 100 µM	> 100 µM	> 100 µM	–
ON=C1CCC(c2ccccc2)CC1 (stereo not given)	–	–	–	–	TGI (LXFL 529 NSCLC): > 100 µM; TGI (DLD-1 colon): > 100 µM; TGI (KM20L2 colon): > 100 µM; TGI (DMS 114 small cell lung): > 100 µM; TGI (HOP-18 NSCLC): > 100 µM
S=C(N/N=C/c1ccccn1)Nc1ccccn1	4.8 µM	> 100 µM	1.99 µM	> 100 µM	–
O=C(C(Br)Br)C(Br)C(Br)c1ccccc1 (stereo not given)	43.5 µM	> 100 µM	3.97 µM	14.1 µM	–
COc1nc(C)cc2c(=O)n(-c3ccccc3)n(CCCN3CCN(c4ccc(Cl)cc4)CC3)c(=O)c12	27.4 µM	> 50 µM	–	–	–
O=C1c2ccccc2-c2c1c1ccccc1c(=O)n2CCNCCNCCn1c2c(c3ccccc3c1=O)C(=O)c1ccccc1-2	4.28 µM	38.5 µM	3.47 µM	17.4 µM	–
CNC(=O)c1cccc(-c2ccc3c(N4CCOC[C@@H]4C)nc(N4CCOC[C@@H]4C)nc3n2)c1	0.0627 µM and 0.0618 µM and 0.116 µM	0.448 µM and 0.32 µM and 0.459 µM	0.0436 µM and 0.0953 µM and 0.0614 µM	1.38 µM and 1.08 µM and 0.648 µM	–
N=C(N)CCCCCCCCC(=N)N	29.2 µM	> 100 µM	27.2 µM	> 100 µM	–
Cc1cc2c(F)c(Oc3ncnn4cc(OC[C@@H](C)OC(=O)[C@H](C)N)c(C)c34)ccc2[nH]1	9.36 µM	44.2 µM	8.43 µM	22 µM	–
C[N+](C)(CCCCCC[N+](C)(C)CCCN1C(=O)c2cc3ccccc3cc2C1=O)CCCN1C(=O)c2ccccc2C1=O	> 37.5 µM	> 37.5 µM	> 37.5 µM	> 37.5 µM	–
COc1ccc(/C=C2/C[N+](C)(C)C/C(=C/c3ccc(OC)cc3)C2=O)cc1	–	–	–	–	TGI (LXFL 529 NSCLC): > 100 µM; TGI (DLD-1 colon): > 100 µM; TGI (KM20L2 colon): > 100 µM; TGI (DMS 114 small cell lung): > 69.3 µM; TGI (HOP-18 NSCLC): > 100 µM
O=C1C(=O)c2ccccc2C(O)=C1C(CCc1ccccc1)C1=C(O)c2ccccc2C(=O)C1=O	–	> 100 µM	–	> 100 µM	TGI (MDA-N): 34.3 µM
C[C@H]1CCC/C=C/[C@@H]2C[C@H](O)C[C@H]2[C@H](O)[C@@H](S(=O)CCN(C)C)CC(=O)O1 (stereo not given in full)	0.0646 µM	> 40.8 µM	0.202 µM	–	GI50 (MDA-N): 0.228 µM; TGI (MDA-N): > 100 µM
O=c1cc2ccccc2nn1-c1ccccc1Cl	–	–	–	–	TGI (DLD-1 colon): > 100 µM; TGI (KM20L2 colon): > 100 µM; TGI (DMS 114 small cell lung): > 100 µM; TGI (HOP-18 NSCLC): > 100 µM
O=C([CH-]C(=O)c1ccccc1)c1ccccc1.O=C([CH-]C(=O)c1ccccc1)c1ccccc1.[Nd+3].[OH-].[OH3+]	–	–	–	–	GI50 (KM20L2 colon): 8.45 µM; TGI (KM20L2 colon): 28.8 µM
O=C(Oc1ccc(CCl)cc1)c1ccccc1	0.121 µM	0.438 µM	0.154 µM	0.295 µM	–
COc1ccc(-c2nc(-c3cn(C)c4ncccc34)cs2)cc1	> 100 µM	> 100 µM	68 µM	> 100 µM	–
C=C(CN1CCc2ccccc2C1)c1ccc(C(=O)Nc2ccc(N)cc2)cc1	29.8 µM	> 100 µM	–	–	–
COc1c(O)ccc2c1CN1CCc3cc4c(cc3C1C2)OCO4 (stereo not given)	–	> 100 µM	–	> 100 µM	TGI (MDA-N): > 80.8 µM
COC(=O)c1ccc(N=NN(C)CO)cc1	–	–	–	–	TGI (LXFL 529 NSCLC): > 100 µM; TGI (DLD-1 colon): > 100 µM; TGI (KM20L2 colon): > 100 µM; TGI (DMS 114 small cell lung): > 100 µM
COc1ccc(-c2cn[nH]c2-c2cc(OC)c(OC)c(OC)c2)cc1N	< 0.01 µM and 0.0233 µM	> 100 µM	< 0.01 µM and 0.0374 µM	–	–
CC(C)(O)C1OCC(C2CCC3(C)C4=CCC5C(C)(C)C(O)CCC5(C)C4CCC23C)CC1O (stereo not given)	–	29.3 µM	–	24.8 µM	TGI (MDA-N): 41.8 µM

Compound	GI50 (HS 578T breast)	TGI (HS 578T breast)	GI50 (BT-549 breast)	TGI (BT-549 breast)	other results
C=C1CC[C@@H]2C(C)(C)CCC[C@@]2(C)[C@@H]1Cc1cc(O)ccc1O	–	–	–	–	TGI (LXFL 529 NSCLC): 6.68 µM; TGI (DLD-1 colon): 18.1 µM; TGI (KM20L2 colon): 32.8 µM; TGI (DMS 114 small cell lung): 4.1 µM; TGI (HOP-18 NSCLC): 30 µM
O=C1CCC2(C=C(Br)C(=O)C(Br)=C2)O1	20.4 µM	57.3 µM	13.6 µM	26.7 µM	–
CC(NNC(=S)N1CCCCCC1)c1ccc2ccccc2n1 (stereo not given)	14.5 µM	> 100 µM	7.45 µM	58.9 µM	–
OCCCCC#Cc1ccccc1C#Cc1ccccc1C(F)(F)F	11.8 µM	37.1 µM	17.1 µM	31.7 µM	–
C/C=C(\C)C(=O)O[C@H]1C=CC(=O)O[C@H]1CNC(=O)[C@H](C)O	18.6 µM	47.2 µM	–	–	–
N.N.NC(CS)C(=O)[O-].NC(CS)C(=O)[O-].[Pt+4] (stereo not given)	–	–	–	–	GI50 (LXFL 529 NSCLC): > 50 µM; TGI (LXFL 529 NSCLC): > 50 µM; GI50 (DLD-1 colon): > 50 µM; TGI (DLD-1 colon): > 50 µM; GI50 (KM20L2 colon): > 50 µM; TGI (KM20L2 colon): > 50 µM; GI50 (HOP-18 NSCLC): > 50 µM; TGI (HOP-18 NSCLC): > 50 µM
Cc1ccc2c(N)c(C(=O)N[C@H]3CCc4cc(N5CC6CCC(C5)N6)ccc4C3)sc2n1	0.58 µM	2.44 µM	0.927 µM	3.06 µM	–
O=C(Nc1ccc(Cl)cc1)c1cc2ccccc2cc1O	2.68 µM	11.9 µM	–	–	–
O=C(NOCC1CC1)c1ccc(F)c(F)c1Nc1ccc(I)cc1Cl	4.85 µM	> 92 µM	3.39 µM	> 100 µM	–
Cn1c(=O)c2[nH]c(CS(=O)(=O)Cc3nc4c([nH]3)c(=O)n(C)c(=O)n4C)nc2n(C)c1=O	–	> 100 µM	–	> 100 µM	TGI (MDA-N): > 100 µM
COC(=O)C(Nc1ccc(OC)cc1)c1ccccc1 (stereo not given)	–	> 100 µM	–	–	TGI (MDA-N): > 100 µM
Nc1ccccc1C#C/C=C\C#Cc1ccc(Cl)cc1Cl	3.61 µM	8.49 µM	12.4 µM	28.7 µM	–
Cc1[nH]c(/C=C2\C(=O)Nc3ccc(F)cc32)c(C)c1C(=O)NC[C@H](O)CN1CCOCC1	2.12 µM	> 10 µM	6.47 µM	> 10 µM	–
CCN(CC)CCOc1ccc(/C=C2\CC3C4CC=C5C[C@@H](N6CCCC6)CC[C@]5(C)C4CC[C@]3(C)[C@H]2O)cc1OC (stereo not given in full)	0.76 µM	13.6 µM	4.7 µM	19.3 µM	–
O=[N+]([O-])/C=C/c1c[nH]c2ccccc12	21.2 µM	66.6 µM	14.1 µM	27.5 µM	–
C=C1C(=O)OC2CC3(CO3)C3C(O)C(O)CC3(C)CC12 (stereo not given)	–	> 100 µM	–	33.9 µM	TGI (MDA-N): 81.6 µM
COc1ccc(-c2nc(-c3ccccc3)c(-c3ccccc3)n2C2CC2)cc1OC1CCCC1	26.3 µM	> 165 µM	> 165 µM	> 165 µM	–
O=c1cc(-c2ccccc2)nc2n1CCN2Cc1ccccc1	26.9 µM	81.7 µM	26.6 µM	67.2 µM	–
Cc1cc(C)nc(Nc2nc3ccc([N+](=O)[O-])cc3[nH]2)n1	–	–	–	–	TGI (LXFL 529 NSCLC): > 100 µM; TGI (DLD-1 colon): > 100 µM; TGI (KM20L2 colon): > 100 µM; TGI (DMS 114 small cell lung): > 100 µM
COc1cc(/C=C/C(=O)c2ccc(Cl)cc2)ccc1OS(=O)(=O)c1ccc(C)cc1	3.99 µM	> 100 µM	5.64 µM	18.7 µM	–
O=C(Nc1ncc(Cc2ccccc2Cl)s1)c1ccc2c(c1)OCCO2	0.354 µM	35.5 µM	0.567 µM	> 100 µM	–
O=C1c2ccccc2-c2c1c1ccccc1c(=O)n2CCCN1CCOCC1	4.15 µM	14.8 µM	8 µM	25.5 µM	–
O=C(NC(=S)Nc1ccc(Cl)cc1)c1ccccc1	38.8 µM	> 100 µM	> 100 µM	> 100 µM	–
CN(C)c1ccc2c3c(c(=O)oc2c1)CCC3	–	> 100 µM	–	> 100 µM	TGI (MDA-N): > 100 µM
C=C1C(=O)O[C@H]2[C@H]1CC/C(Cn1cc(-c3ccccc3)nn1)=C\CC[C@@]1(C)O[C@@H]21	9.78 µM	29.6 µM	2.65 µM	8.97 µM	–
O=C1OC(=O)C2C1C1(c3ccccc3)C(c3ccccc3)=C(c3ccccc3)C2(c2ccccc2)S1=O (stereo not given)	–	–	26.3 µM	> 100 µM	–
CC(=O)OC(C)(C)/C=C/C(=O)[C@](C)(O)[C@H]1[C@H](O)C[C@@]2(C)[C@@H]3CC=C4[C@@H](C[C@H](O)C(=O)C4(C)C)[C@]3(C)C(=O)C[C@]12C	–	< 0.01 µM	–	0.0201 µM	TGI (MDA-N): 2.39 µM
